US20260274857A1, “CRYSTAL OF DIHYDROPYRIDINONE DERIVATIVE OR SOLVATE THEREOF” (Shionogi & Co., Ltd., priority 2022, published 2026)
One block for each molecule: values may come before it.

Experiments:
[1] = Moisture adsorption/desorption isotherm measurement (DVS); assay type: physicochemical
Source text: The moisture adsorption/desorption isotherm measurement is a measurement method for measuring the adsorption and desorption behavior of moisture by measuring a weight change in a solid as a measurement target under each relative humidity condition.
As a basic measurement method, based on the dry weight at 0% RH (relative humidity 0%), the relative humidity is increased every 5% or 10%, and after the weight is stabilized at each relative humidity, the amount of adsorbed water can be determined from the weight increase from the reference value. Similarly, the desorption amount of water can be measured by decreasing the relative humidity every 5% or 10% from 100% RH or 95% RH.
By plotting the value of the weight change at each relative humidity, an adsorption/desorption isotherm can be obtained.
Sorption and desorption of adhesion water and crystal water are affected by particle size, crystallinity, crystal habit, and the like, so that the measurement results may slightly change.
The crystals and amorphous substances obtained in each Example were weighed in an aluminum pan, and allowed to stand at 25° C. and a relative humidity of 0%. The measurement was started after the compound was sufficiently dried and the weight was stabilized, and the weight when the relative humidity changed from 0% to 95% by 5% was recorded. Next, the weight when the relative humidity changed from 95% to 0% by 5% was recorded.
Device: DVS Advantage manufactured by Surface Measurement Systems

[2] = Solid stability test: storage stability (amount of analogous substance by HPLC, appearance); assay type: physicochemical
Method: For the solid stability of the crystal of the compound represented by Formula (I) obtained in Example 1 and the crystal of the compound represented by Formula (II) obtained in Example 16, the chemical stability under temperature, temperature and humidity conditions, and light irradiation was evaluated. The proportion (%) of the analogous substance produced by an HPLC method and the change in appearance were evaluated.
About 10 mg of the crystal was accurately weighed in a 2 mL glass container with a polyethylene stopper. After the glass container was closed, the glass container was stored at 40° C. or 60° C. for 2 weeks, 1 month, 2 months, 3 months, or 6 months. A sample stored at 40° C. is referred to as a 40° C. hermetically sealed product, and a sample stored at 60° C. is referred to as a 60° C. hermetically sealed product. In a state where the glass container was opened, the glass container was stored at a relative humidity of 75±5% at 40° C. or a relative humidity of 89±5% for 2 weeks, 1 month, 2 months, 3 months or 6 months, or in the presence of silica gel at 40° C. for 1 month, 2 months, 3 months or 6 months. A sample stored at 40° C. and a relative humidity of 75±5% or 89±5% is referred to as a 40° C. and 75% relative humidity (also referred to as 40±2° C./75±5% RH) or 40° C. and 89% relative humidity (also referred to as 40±2° C./89% RH) stored product, and a sample stored in the presence of silica gel at 40° C. is referred to as a 40° C. stored product. The −40° C. hermetically sealed product was used as a standard product.
The amount of the analogous substance was measured by an area percentage method by the HPLC method under the following conditions.
HPLC Conditions 1 were used for the crystal and amorphous substance of the compound represented by Formula (I) obtained in Example 1, and HPLC conditions 2 were used for the crystal of the compound represented by Formula (II) obtained in Example 16.
• Detector: ultraviolet absorptiometer (measurement wavelength: 260 nm) • Column: YMC-Triart C18 ExRS, S-1.9 μm, 3.0×100 mm • Column temperature: constant temperature at near 40° C. • Mobile phase A: 0.1% formic acid aqueous solution • Mobile phase B: acetonitrile • Flow rate: about 0.6 mL/min • Injection amount: 3 μL • Sample cooler temperature: about 6° C. • Feed of mobile phase: The mixing ratio of mobile phase A and mobile phase B was changed as shown in Table 18 to control concentration gradient.
Column: Cortecs (2.7 μm 3.0×100 mm)
Column temperature: 40° C.
UV detection wavelength: 254 nm

Moisture adsorption amount (%) ([1]; relative humidity 0.0%): 0.002%
Moisture desorption amount (%) ([1]; relative humidity 0.0%): −0.433%
Moisture adsorption amount (%) ([1]; relative humidity 5.0%): 0.676%
Moisture desorption amount (%) ([1]; relative humidity 5.0%): 0.606%
Moisture adsorption amount (%) ([1]; relative humidity 10.0%): 1.020%
Moisture desorption amount (%) ([1]; relative humidity 10.0%): 1.196%
Moisture adsorption amount (%) ([1]; relative humidity 15.0%): 1.312%
Moisture desorption amount (%) ([1]; relative humidity 15.0%): 1.674%
Moisture adsorption amount (%) ([1]; relative humidity 20.0%): 1.574%
Moisture desorption amount (%) ([1]; relative humidity 20.0%): 2.131%
Moisture adsorption amount (%) ([1]; relative humidity 25.0%): 1.807%
Moisture desorption amount (%) ([1]; relative humidity 25.0%): 2.495%
Moisture adsorption amount (%) ([1]; relative humidity 30.0%): 2.015%
Moisture desorption amount (%) ([1]; relative humidity 30.0%): 2.831%
Moisture adsorption amount (%) ([1]; relative humidity 35.0%): 2.213%
Moisture desorption amount (%) ([1]; relative humidity 35.0%): 3.157%
Moisture adsorption amount (%) ([1]; relative humidity 40.0%): 2.414%
Moisture desorption amount (%) ([1]; relative humidity 40.0%): 3.423%
Moisture adsorption amount (%) ([1]; relative humidity 45.0%): 2.589%
Moisture desorption amount (%) ([1]; relative humidity 45.0%): 3.699%
Moisture adsorption amount (%) ([1]; relative humidity 50.0%): 2.780%
Moisture desorption amount (%) ([1]; relative humidity 50.0%): 3.913%
Moisture adsorption amount (%) ([1]; relative humidity 55.0%): 2.976%
Moisture desorption amount (%) ([1]; relative humidity 55.0%): 4.135%
Moisture adsorption amount (%) ([1]; relative humidity 60.0%): 3.185%
Moisture desorption amount (%) ([1]; relative humidity 60.0%): 4.411%
Moisture adsorption amount (%) ([1]; relative humidity 65.0%): 3.384%
Moisture desorption amount (%) ([1]; relative humidity 65.0%): 4.683%
Moisture adsorption amount (%) ([1]; relative humidity 70.0%): 3.623%
Moisture desorption amount (%) ([1]; relative humidity 70.0%): 5.151%
Moisture adsorption amount (%) ([1]; relative humidity 75.0%): 3.914%
Moisture desorption amount (%) ([1]; relative humidity 75.0%): 5.420%
Moisture adsorption amount (%) ([1]; relative humidity 80.0%): 4.320%
Moisture desorption amount (%) ([1]; relative humidity 80.0%): 5.865%
Moisture adsorption amount (%) ([1]; relative humidity 85.0%): 4.850%
Moisture desorption amount (%) ([1]; relative humidity 85.0%): 6.219%
Moisture adsorption amount (%) ([1]; relative humidity 90.0%): 5.604%
Moisture desorption amount (%) ([1]; relative humidity 90.0%): 6.599%
Moisture adsorption amount (%) ([1]; relative humidity 95.0%): 6.974%
Moisture desorption amount (%) ([1]; relative humidity 95.0%): 6.974%
Compound: Cc1ccc(-n2nc3c(c2NC(=O)CS(C)(=O)=O)C(=O)NC2(CCOc4cc(F)cc(F)c42)C3)nc1 (stereo not shown)

Amount (%) of total analogous substance ([2]; 40° C. Relative humidity 75%, 2 months): 0.68%
Amount (%) of total analogous substance ([2]; 40° C. hermetically sealed, 1 month): 0.65%
Amount (%) of total analogous substance ([2]; 40° C. hermetically sealed, 2 months): 0.66%
Amount (%) of total analogous substance ([2]; 40° C. hermetically sealed, 2 weeks): 0.64%
Amount (%) of total analogous substance ([2]; 60° C. hermetically sealed, 1 month): 0.85%
Amount (%) of total analogous substance ([2]; 60° C. hermetically sealed, 2 weeks): 0.76%
Amount (%) of total analogous substance ([2]; (Standard product) −40° C. hermetically sealed, 1 month): 0.61%
Amount (%) of total analogous substance ([2]; (Standard product) −40° C. hermetically sealed, 2 months): 0.62%
Compound: CS(=O)(=O)CC(=O)Nc1c2c(nn1CCCOC(F)(F)F)CC1(CCOc3cc(OCC(F)(F)F)ccc31)NC2=O (stereo not shown)

hygroscopicity (in words) ([1]; DVS, 0% to 95% RH): no problem in hygroscopicity
difference in water content between 0% RH and 95% RH ([1]; DVS, 25° C.): about 0.4%
Moisture adsorption amount (%) ([1]; relative humidity 0.0%): 0.0000%
Moisture desorption amount (%) ([1]; relative humidity 0.0%): 0.0690%
Moisture adsorption amount (%) ([1]; relative humidity 5.0%): 0.0149%
Moisture desorption amount (%) ([1]; relative humidity 5.0%): 0.1029%
Moisture adsorption amount (%) ([1]; relative humidity 10.0%): 0.0250%
Moisture desorption amount (%) ([1]; relative humidity 10.0%): 0.1252%
Moisture adsorption amount (%) ([1]; relative humidity 15.0%): 0.0352%
Moisture desorption amount (%) ([1]; relative humidity 15.0%): 0.1435%
Moisture adsorption amount (%) ([1]; relative humidity 20.0%): 0.0494%
Moisture desorption amount (%) ([1]; relative humidity 20.0%): 0.1610%
Moisture adsorption amount (%) ([1]; relative humidity 25.0%): 0.0623%
Moisture desorption amount (%) ([1]; relative humidity 25.0%): 0.1773%
Moisture adsorption amount (%) ([1]; relative humidity 30.0%): 0.0758%
Moisture desorption amount (%) ([1]; relative humidity 30.0%): 0.1922%
Moisture adsorption amount (%) ([1]; relative humidity 35.0%): 0.0893%
Moisture desorption amount (%) ([1]; relative humidity 35.0%): 0.2077%
Moisture adsorption amount (%) ([1]; relative humidity 40.0%): 0.1042%
Moisture desorption amount (%) ([1]; relative humidity 40.0%): 0.2206%
Moisture adsorption amount (%) ([1]; relative humidity 45.0%): 0.1204%
Moisture desorption amount (%) ([1]; relative humidity 45.0%): 0.2348%
Moisture adsorption amount (%) ([1]; relative humidity 50.0%): 0.1387%
Moisture desorption amount (%) ([1]; relative humidity 50.0%): 0.2497%
Moisture adsorption amount (%) ([1]; relative humidity 55.0%): 0.1563%
Moisture desorption amount (%) ([1]; relative humidity 55.0%): 0.2659%
Moisture adsorption amount (%) ([1]; relative humidity 60.0%): 0.1746%
Moisture desorption amount (%) ([1]; relative humidity 60.0%): 0.2822%
Moisture adsorption amount (%) ([1]; relative humidity 65.0%): 0.2016%
Moisture desorption amount (%) ([1]; relative humidity 65.0%): 0.3038%
Moisture adsorption amount (%) ([1]; relative humidity 70.0%): 0.2334%
Moisture desorption amount (%) ([1]; relative humidity 70.0%): 0.3289%
Moisture adsorption amount (%) ([1]; relative humidity 75.0%): 0.2619%
Moisture desorption amount (%) ([1]; relative humidity 75.0%): 0.3464%
Moisture adsorption amount (%) ([1]; relative humidity 80.0%): 0.2937%
Moisture desorption amount (%) ([1]; relative humidity 80.0%): 0.3627%
Moisture adsorption amount (%) ([1]; relative humidity 85.0%): 0.3268%
Moisture desorption amount (%) ([1]; relative humidity 85.0%): 0.3782%
Moisture adsorption amount (%) ([1]; relative humidity 90.0%): 0.3695%
Moisture desorption amount (%) ([1]; relative humidity 90.0%): 0.4013%
Moisture adsorption amount (%) ([1]; relative humidity 95.0%): 0.4243%
Moisture desorption amount (%) ([1]; relative humidity 95.0%): 0.4243%
Compound: CS(=O)(=O)CC(=O)Nc1c2c(nn1CCCOC(F)(F)F)C[C@@]1(CCOc3cc(OCC(F)(F)F)ccc31)NC2=O [crystal of the compound represented by Formula (II) obtained]
solid stability (in words) ([2]; temperature, temperature and humidity conditions, light irradiation, analogous substance by HPLC and appearance): excellent in solid stability under any conditions
